Results published in paper PMC10208570, “Peptidomimetic antibiotics disrupt the lipopolysaccharide transport bridge of drug-resistant Enterobacteriaceae” (Science Advances, 2023).
In brackets after ≈: the same amount, converted by molar mass. Where a SMILES comes first, the peptide text is derived from it. Bridges are numbered along the chain shown (N, C = ends). [ ]: non-standard residue; d: D form. Hyp = O=C(O)[C@@H]1C[C@@H](O)CN1; Pen = CC(C)(S)[C@H](N)C(=O)O; dDab = NCC[C@@H](N)C(=O)O; Dab = NCC[C@H](N)C(=O)O

Legend:
Plasma protein binding [1] = type: in vitro ADME, human; conditions: human, plasma, pH 7.5
Method: (§1) After ultrafiltration, protein binding was determined by subtracting the percentage of compound in ultrafiltrate from the total amount of compound in spiked plasma (table S4A).

human red blood cells = experiment: Haemolysis; type: cell-based; conditions: PBS-washed human red blood cells; 1 h at 200 mg/liter, 37°C; OD 540 nm; versus 100% lysis control 2.5% Triton X-100; biological replicates
Method: To test their hemolytic potential, compounds were incubated in the presence of phosphate-buffered saline (PBS)–washed human red blood cells. After 1-hour incubation at 200 mg/liter and 37°C, the samples were centrifuged (3220g), the supernatants were diluted in Dulbecco’s PBS, and optical density at 540 nm was determined. The hemolysis induced by the compound was calculated versus a 100% lysis control prepared with 2.5% Triton X-100 (table S4A).

LptAmQ62L = biological target: T1, LptAmQ62L (Escherichia coli, UniProt P0ADV1, Q62L); experiment: biochemical; type: binding, E. coli
T1 construct: His6-GB1 (N, cleaved yes); made in house; host or cells: E. coli BL21 (DE3)
Method: (§2) Protein stocks were purified and concentrated in buffer 1 [50 mM Na-Pi (pH 7) and 150 mM NaCl] and, if necessary, diluted to desired concentrations using buffer 2 [50 mM Na-Pi (pH 7), 150 mM NaCl, and 0.05% Tween 20]. Peptide stocks and fluorescently labeled peptide stocks were made in buffer 2. Every serial dilution consisted of 24 wells, the first well with the highest concentrate and the last well (well 24) with the lowest. First, 50 μl of buffer 2 was added to the wells 2 to 24 of each serial dilution. Then, 100 μl of concentrated unlabeled peptide/protein in their respective buffers was added to the first well. Fifty microliters were taken from the first well and added to the second well for a 1:1 serial dilution and continued for the 24 wells. […] Plates were covered with adhesive seals and left to incubate overnight at 4°C before FP measurements the next day. Anisotropy was measured using the Tecan Safire2 plate reader using a 10-nm bandwidth and setting the excitation and emission wavelengths to 635 and 670 nm, respectively. The G-factor (G) was also determined empirically as 1.094 for the instrument and included in all the anisotropy calculations.
(§3) For the indirect binding assays, r was calculated in the same manner as the direct binding assays. […] The control was subtracted from r to yield r′. Data were fit to a sigmoidal interpolation model on GraphPad Prism 9, and an IC50 was generated for each unlabeled peptide or protein measured.

LptAm = biological target: T2, LptAm (Escherichia coli, UniProt P0ADV1); experiment: biochemical; type: binding, E. coli
T2 construct: His6-GB1 (N, cleaved yes); made in house; host or cells: E. coli BL21 (DE3)
Method: as §2, §3

in vitro = type: cell-based; conditions: human
Method: The cytotoxicity of compounds was determined by determining the number of viable cells using the Sigma Cell Counting Kit-8 (WST-8). HeLa cells were incubated at 37°C and 5% CO2 for 24 hours, after which the medium was replaced with fresh medium containing dilutions of compounds. […]

[2] = tested on: Klebsiella pneumoniae ATCC 43816 LptA I36N mutant; experiment: microbe, parasite or virus in culture; conditions: Table S9 panel
Method: (§4) MIC assays [Clinical and Laboratory Standards Institute (CLSI) methodology] and serial passage studies were performed as described by Luther et al. ([6]). […] Resistant mutants were isolated, and their MIC values were determined and sent to Microbes NG (Birmingham, United Kingdom) for whole-genome sequencing and bioinformatic analysis.

[3] = tested on: Klebsiella pneumoniae ATCC 43816 LptA I36S mutant; experiment: microbe, parasite or virus in culture; conditions: Table S9 panel
Method: as §4

[4] = tested on: Escherichia coli ATCC 25922 KdsD mutant; experiment: microbe, parasite or virus in culture; conditions: Table S9 panel; other mutation
Method: as §4

[5] = tested on: K. pneumoniae NCTC 13443 (NDM-1) (parent / WT); experiment: microbe, parasite or virus in culture
Method: as §4

[6] = tested on: E. coli ATCC 25922 LptA Q62L mutant; experiment: microbe, parasite or virus in culture; conditions: for MIC E. coli ATCC 25922 Q62L mutant: CLSI method, clone harboring LptA Q62L
Method: as §4

[7] = tested on: K. pneumoniae ATCC 43816 (parent / WT); experiment: microbe, parasite or virus in culture
Method: as §4

[8] = tested on: Escherichia coli ATCC 25922 LptA E84D mutant; experiment: microbe, parasite or virus in culture; conditions: Table S9 panel
Method: as §4

[9] = tested on: Klebsiella pneumoniae NCTC 13443 LpxC, LpxD mutant; experiment: microbe, parasite or virus in culture; conditions: Table S9 panel; other mutation
Method: as §4

[10] = tested on: K. pneumoniae ATCC 43816 LptA Q62L mutant; experiment: microbe, parasite or virus in culture; conditions: for MIC Klebsiella pneumoniae ATCC 43816 LptA Q62L (4x): Table S9 panel
Method: as §4

[11] = tested on: Klebsiella pneumoniae NCTC 13443 YejM mutant; experiment: microbe, parasite or virus in culture; conditions: Table S9 panel; other mutation
Method: as §4

[12] = tested on: Klebsiella pneumoniae NCTC 13443 LptA I36S mutant; experiment: microbe, parasite or virus in culture; conditions: Table S9 panel
Method: as §4

[13] = tested on: K. pneumoniae NCTC 13443 (NDM-1) LptA Q62L mutant; experiment: microbe, parasite or virus in culture; conditions: for MIC K. pneumoniae NCTC 13443 (NDM-1) Q62L mutant: CLSI method, clone harboring LptA Q62L; for MIC Klebsiella pneumoniae NCTC 13443 LptA Q62L (5x): Table S9 panel
Method: as §4

[14] = tested on: Klebsiella pneumoniae ATCC 43816 LapB mutant; experiment: microbe, parasite or virus in culture; conditions: Table S9 panel; other mutation
Method: as §4

[15] = tested on: E. coli ATCC 25922 (parent / WT); experiment: microbe, parasite or virus in culture; conditions: for MIC Escherichia coli ATCC 25922 WT: Table S9 panel
Method: as §4

[16] = tested on: Klebsiella pneumoniae ATCC 43816 PglJ, PhnJ, ThiH mutant; experiment: microbe, parasite or virus in culture; conditions: Table S9 panel; other mutation
Method: as §4

[17] = tested on: Klebsiella pneumoniae ATCC 43816 LptA L116Q mutant; experiment: microbe, parasite or virus in culture; conditions: Table S9 panel
Method: as §4

Plasma protein binding [18] = type: in vitro ADME, mouse; conditions: mouse, plasma, pH 7.5
Method: as §1

[19] = tested on: Enterobacteriaceae (CS, Col-S) (n=22); type: cell-based; conditions: CLSI microdilution; minimum and maximum MIC of the panel; carbapenem sensitive, colistin sensitive
Method: as §4

[20] = tested on: K. pneumoniae 968733 (CST-R); experiment: MIC assay (CLSI); type: cell-based, Klebsiella pneumoniae; conditions: CLSI method; colistin-resistant strain
Method: as §4

[21] = tested on: panel of 121 Enterobacteriaceae including CRE, MDR, and XDR isolates; experiment: organism not typed; conditions: CLSI microdilution method; 121 isolates
Method: as §4

K. pneumoniae = type: cell-based, Klebsiella pneumoniae; conditions: serial passage in broth at sub-MIC and multiples of the MIC
Method: as §4
(§5) Fig. S8. Resistance development studies by serial passage. Broth containing a single antibiotic at sub-MIC and multiples of the MIC were inoculated with bacteria. Drug concentrations were […]
(§6) day 1 and 2 of passaging.
(§7) (1 picture or pasted object on this page, not shown here)

E. coli = type: cell-based, Escherichia coli; conditions: serial passage in broth at sub-MIC and multiples of the MIC
Method: as §4, §5, §6, §7

T1 sequence (P0ADV1 28-159 Q62L): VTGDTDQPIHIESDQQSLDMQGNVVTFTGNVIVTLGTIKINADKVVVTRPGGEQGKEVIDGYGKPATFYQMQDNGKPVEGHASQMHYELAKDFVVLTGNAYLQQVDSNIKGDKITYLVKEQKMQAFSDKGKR
T2 sequence (P0ADV1 28-159): as the sequence (P0ADV1 28-159 Q62L) above, with L35Q counted along it

Compound | MIC Klebsiella pneumoniae ATCC 43816 LptA I36N (1x) [2] | MIC Klebsiella pneumoniae ATCC 43816 LptA I36S (1x) [3] | MIC Escherichia coli ATCC 25922 KdsD (2x) [4] | MIC E. coli ATCC 25922 Q62L mutant [6] | MIC Escherichia coli ATCC 25922 LptA E84D (1x) [8] | MIC Klebsiella pneumoniae NCTC 13443 LpxC, LpxD (1x) [9] | MIC Klebsiella pneumoniae ATCC 43816 LptA Q62L (4x) [10] | MIC Klebsiella pneumoniae NCTC 13443 YejM (1x) [11] | MIC Klebsiella pneumoniae NCTC 13443 LptA I36S (2x) [12] | MIC K. pneumoniae NCTC 13443 (NDM-1) Q62L mutant [13] | MIC Klebsiella pneumoniae NCTC 13443 LptA Q62L (5x) [13] | MIC Klebsiella pneumoniae ATCC 43816 LapB (1x) [14] | MIC Escherichia coli ATCC 25922 WT [15] | MIC Klebsiella pneumoniae ATCC 43816 PglJ, PhnJ, ThiH (1x) [16] | MIC Klebsiella pneumoniae ATCC 43816 LptA L116Q (1x) [17] | further results
CC[C@H](C)[C@H](NC(=O)[C@@H](NC(=O)[C@@H]1C[C@@H](O)CN1C(=O)[C@@H](N)C(C)C)[C@@H](C)CC)C(=O)N[C@@H](Cc1ccc(O)cc1)C(=O)N[C@@H]1C(=O)N[C@@H](CC(N)=O)C(=O)N[C@@H](CCCNC(=N)N)C(=O)N[C@@H](CCN)C(=O)N[C@@H]([C@@H](C)O)C(=O)N[C@H](CCN)C(=O)N[C@@H](CCCCN)C(=O)N[C@H](C(=O)N[C@@H](CCN)C(=O)N[C@@H](CCN)C(=O)N[C@@H](Cc2ccc(O)cc2)C(=O)O)CSSC1(C)C [Compound 5] (H-V[Hyp]IIY[Pen]NR[Dab]T[dDab]KC[Dab][Dab]Y-OH; disulfide 6-13) | 1 µg/mL (≈ 0.522 µM) | 1 µg/mL (≈ 0.522 µM) | 0.5 µg/mL (≈ 0.261 µM) | 0.25 micrograms per milliliter | 1 µg/mL (≈ 0.522 µM) | 0.5 µg/mL (≈ 0.261 µM) | 4 µg/mL (≈ 2.09 µM) | 2 µg/mL (≈ 1.04 µM) | 4 µg/mL (≈ 2.09 µM) | 4 micrograms per milliliter | 8 µg/mL (≈ 4.18 µM) | 0.5 µg/mL (≈ 0.261 µM) | 0.125 µg/mL (≈ 0.0653 µM) | 0.5 µg/mL (≈ 0.261 µM) | 1 µg/mL (≈ 0.522 µM) | fraction unbound at 30 min, 10 mg/liter (Plasma protein binding [1]): 0.18; Haemolysis % at 0.2 g/L (human red blood cells): 0%; IC50 (LptAmQ62L): 0.0139 ± 0.0023 µM; Ki (LptAmQ62L): 0.0094 ± 0.0015 µM; IC50 (LptAm): 0.0186 ± 0.0011 µM; Ki (LptAm): 0.0031 ± 0.0002 µM; IC50 at 48 h (in vitro): 1270 µM; MIC K. pneumoniae NCTC 13443 (NDM-1) Parent ([5]; CLSI method, parent strain): 1 micrograms per milliliter; MIC K. pneumoniae ATCC 43816 Parent ([7]; ATCC 43816): 0.25 micrograms per milliliter; MIC E. coli ATCC 25922 Parent ([15]; CLSI method, parent strain): 0.063 micrograms per milliliter; fraction unbound at 30 min, 10 mg/liter (Plasma protein binding [18]): 0.13
Colistin | ≤ 0.06 µg/mL | 0.13 µg/mL | 0.25 µg/mL | 0.25 micrograms per milliliter | 0.25 µg/mL | 0.25 µg/mL | 0.13 µg/mL | 0.25 µg/mL | 0.13 µg/mL | 0.125 micrograms per milliliter | 0.13 µg/mL | 0.13 µg/mL | 0.25 µg/mL | 0.13 µg/mL | 0.13 µg/mL | MIC range Enterobacteriaceae (CS, Col-S) (n=22) [19]: 0.06 to 0.5 µg/mL; MIC K. pneumoniae 968733 (CST-R) Parent [20]: >8 micrograms per milliliter; MIC50 (n=121) [21]: 0.13 µg/mL; MIC90 (n=121) [21]: > 8 µg/mL; Development of resistance, day of passaging, K. pneumoniae (K. pneumoniae): 1 to 3 days; MIC Klebsiella pneumoniae NCTC 13443 WT ([5]; Table S9 panel, WT): 0.25 µg/mL; MIC Escherichia coli ATCC 25922 LptA Q62L (7x) ([6]; Table S9 panel): 0.13 µg/mL; MIC K. pneumoniae ATCC 43816 Parent ([7]; CLSI method, parent strain): 0.125 micrograms per milliliter; MIC Klebsiella pneumoniae ATCC 43816 WT ([7]; Table S9 panel, WT): 0.13 µg/mL; MIC K. pneumoniae ATCC 43816 Q62L mutant ([10]; CLSI method, clone harboring LptA Q62L): 0.125 micrograms per milliliter; Development of resistance, day of passaging, E. coli (E. coli): 5 to 7 days
